How the values were obtained:
[1] = tested on: Tyrosine-protein kinase ABL1 (Homo sapiens), P00519 [H396P]; assay: Inhibition of nonphosphorylated ABL1 H396P mutant (unknown origin) assessed as residual activity at 100 nM by KINOMEscan analysis relative to control
[2] = target: Receptor tyrosine-protein kinase erbB-3 (Homo sapiens) (UniProt P21860); assay: Inhibition of ERBB3 (unknown origin) assessed as residual activity at 100 nM by KINOMEscan analysis relative to control
[3] = target: Fibroblast growth factor receptor 1 (Homo sapiens) (UniProt P11362); assay: Inhibition of FGFR1 (unknown origin) assessed as residual activity at 100 nM by KINOMEscan analysis relative to control
Sequence of Fibroblast growth factor receptor 1 (Homo sapiens) (P11362 22-822 limits assumed): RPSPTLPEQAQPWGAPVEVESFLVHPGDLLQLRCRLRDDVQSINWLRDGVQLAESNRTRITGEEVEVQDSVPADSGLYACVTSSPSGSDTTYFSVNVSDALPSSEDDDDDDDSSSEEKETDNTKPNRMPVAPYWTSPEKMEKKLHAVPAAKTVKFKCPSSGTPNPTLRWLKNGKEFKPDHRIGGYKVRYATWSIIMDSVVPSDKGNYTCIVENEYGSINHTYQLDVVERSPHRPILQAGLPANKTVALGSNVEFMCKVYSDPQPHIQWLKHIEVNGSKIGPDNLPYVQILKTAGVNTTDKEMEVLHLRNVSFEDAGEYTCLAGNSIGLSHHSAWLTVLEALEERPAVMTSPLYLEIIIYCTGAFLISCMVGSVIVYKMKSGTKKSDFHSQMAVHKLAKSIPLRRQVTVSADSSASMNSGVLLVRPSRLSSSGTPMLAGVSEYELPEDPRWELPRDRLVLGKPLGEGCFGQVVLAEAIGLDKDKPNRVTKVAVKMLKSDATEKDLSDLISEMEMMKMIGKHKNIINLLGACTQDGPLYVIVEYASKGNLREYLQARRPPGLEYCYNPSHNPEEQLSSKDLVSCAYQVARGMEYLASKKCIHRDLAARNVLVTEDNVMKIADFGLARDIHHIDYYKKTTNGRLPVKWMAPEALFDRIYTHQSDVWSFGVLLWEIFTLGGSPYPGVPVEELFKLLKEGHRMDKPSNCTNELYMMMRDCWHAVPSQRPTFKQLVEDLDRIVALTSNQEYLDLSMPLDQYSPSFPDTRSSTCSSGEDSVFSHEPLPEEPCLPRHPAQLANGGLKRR

[4] = target: Homeodomain-interacting protein kinase 3 (Homo sapiens) (UniProt Q9H422); assay: Inhibition of HIPK3 (unknown origin) assessed as residual activity at 100 nM by KINOMEscan analysis relative to control
[5] = target: T1, Inhibitor of nuclear factor kappa-B kinase subunit alpha (Homo sapiens) (UniProt O15111); assay: Inhibition of IKK-alpha (unknown origin) assessed as residual activity at 100 nM by KINOMEscan analysis relative to control
T1 sequence (whole entry): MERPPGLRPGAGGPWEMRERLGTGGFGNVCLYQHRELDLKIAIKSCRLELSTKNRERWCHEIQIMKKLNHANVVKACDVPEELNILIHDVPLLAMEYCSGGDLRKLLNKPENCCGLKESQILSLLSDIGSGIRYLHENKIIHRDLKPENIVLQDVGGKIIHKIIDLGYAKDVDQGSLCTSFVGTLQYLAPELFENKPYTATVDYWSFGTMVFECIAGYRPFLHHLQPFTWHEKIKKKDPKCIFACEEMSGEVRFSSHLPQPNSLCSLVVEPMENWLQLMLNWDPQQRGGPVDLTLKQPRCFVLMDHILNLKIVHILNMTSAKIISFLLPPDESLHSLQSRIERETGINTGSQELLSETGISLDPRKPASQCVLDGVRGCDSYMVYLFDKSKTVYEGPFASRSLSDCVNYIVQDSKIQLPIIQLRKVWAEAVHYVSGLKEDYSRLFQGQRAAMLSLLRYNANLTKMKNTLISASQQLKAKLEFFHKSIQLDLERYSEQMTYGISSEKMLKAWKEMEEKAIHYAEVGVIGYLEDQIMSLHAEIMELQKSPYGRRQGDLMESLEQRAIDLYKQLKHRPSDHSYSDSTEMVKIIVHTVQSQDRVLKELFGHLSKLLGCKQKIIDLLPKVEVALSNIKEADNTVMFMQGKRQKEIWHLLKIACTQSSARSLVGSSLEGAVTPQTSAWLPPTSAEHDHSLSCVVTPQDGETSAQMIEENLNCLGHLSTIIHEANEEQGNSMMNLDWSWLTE

[6] = target: Mitogen-activated protein kinase kinase kinase kinase 4 (Homo sapiens) (UniProt O95819); assay: Inhibition of MAP4K4 (unknown origin) assessed as residual activity at 100 nM by KINOMEscan analysis relative to control
Sequence of Mitogen-activated protein kinase kinase kinase kinase 4 (Homo sapiens) (O95819 2-1239 limits assumed): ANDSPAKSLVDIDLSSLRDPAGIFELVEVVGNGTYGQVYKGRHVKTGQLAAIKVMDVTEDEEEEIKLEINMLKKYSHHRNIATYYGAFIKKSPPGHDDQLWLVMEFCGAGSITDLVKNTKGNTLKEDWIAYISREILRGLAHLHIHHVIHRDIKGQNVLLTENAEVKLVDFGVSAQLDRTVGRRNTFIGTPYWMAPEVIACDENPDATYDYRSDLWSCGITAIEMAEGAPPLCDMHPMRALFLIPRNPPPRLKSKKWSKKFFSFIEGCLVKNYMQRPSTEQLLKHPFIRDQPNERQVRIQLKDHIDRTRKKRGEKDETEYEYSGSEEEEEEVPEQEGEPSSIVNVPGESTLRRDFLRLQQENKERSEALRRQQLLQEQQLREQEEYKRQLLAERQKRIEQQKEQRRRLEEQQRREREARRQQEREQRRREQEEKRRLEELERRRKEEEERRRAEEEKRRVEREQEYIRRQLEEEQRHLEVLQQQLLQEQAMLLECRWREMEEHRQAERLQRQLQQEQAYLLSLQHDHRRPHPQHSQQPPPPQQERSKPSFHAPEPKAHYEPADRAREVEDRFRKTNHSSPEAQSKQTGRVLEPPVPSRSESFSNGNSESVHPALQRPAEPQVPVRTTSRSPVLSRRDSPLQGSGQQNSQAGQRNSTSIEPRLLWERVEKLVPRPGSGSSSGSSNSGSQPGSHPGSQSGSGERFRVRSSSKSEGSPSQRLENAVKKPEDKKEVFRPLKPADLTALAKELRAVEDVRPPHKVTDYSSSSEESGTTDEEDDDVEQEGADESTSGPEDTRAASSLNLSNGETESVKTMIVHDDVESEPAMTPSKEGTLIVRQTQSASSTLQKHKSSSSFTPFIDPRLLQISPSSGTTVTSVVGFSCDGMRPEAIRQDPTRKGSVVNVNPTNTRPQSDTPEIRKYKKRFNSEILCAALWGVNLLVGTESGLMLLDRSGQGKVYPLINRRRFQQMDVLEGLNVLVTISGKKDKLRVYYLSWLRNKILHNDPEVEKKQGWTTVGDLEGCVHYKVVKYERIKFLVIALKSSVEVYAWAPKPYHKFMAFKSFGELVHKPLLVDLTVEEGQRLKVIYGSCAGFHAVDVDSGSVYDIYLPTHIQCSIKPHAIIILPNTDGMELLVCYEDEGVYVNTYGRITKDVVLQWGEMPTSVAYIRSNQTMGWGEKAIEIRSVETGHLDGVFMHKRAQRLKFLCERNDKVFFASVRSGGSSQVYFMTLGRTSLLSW

[7] = target: T2, MAP kinase-activated protein kinase 5 (Homo sapiens) (UniProt Q8IW41); assay: Inhibition of MAPKAPK5 (unknown origin) assessed as residual activity at 100 nM by KINOMEscan analysis relative to control
T2 sequence (whole entry): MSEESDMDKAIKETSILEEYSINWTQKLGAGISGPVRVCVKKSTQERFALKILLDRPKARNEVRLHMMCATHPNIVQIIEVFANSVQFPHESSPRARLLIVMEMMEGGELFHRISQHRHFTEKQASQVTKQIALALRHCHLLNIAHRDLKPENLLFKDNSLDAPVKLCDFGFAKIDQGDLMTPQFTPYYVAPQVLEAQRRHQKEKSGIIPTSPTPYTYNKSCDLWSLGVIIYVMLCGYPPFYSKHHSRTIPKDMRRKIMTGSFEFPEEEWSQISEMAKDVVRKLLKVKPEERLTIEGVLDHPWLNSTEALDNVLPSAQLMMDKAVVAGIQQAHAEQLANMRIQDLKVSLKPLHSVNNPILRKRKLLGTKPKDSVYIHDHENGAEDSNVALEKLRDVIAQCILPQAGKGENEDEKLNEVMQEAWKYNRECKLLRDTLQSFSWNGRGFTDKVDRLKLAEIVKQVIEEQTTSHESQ

[8] = target: Serine/threonine-protein kinase SIK3 (Homo sapiens) (UniProt Q9Y2K2); assay: Inhibition of QSK (unknown origin) assessed as residual activity at 100 nM by KINOMEscan analysis relative to control
[9] = target: T3, Serine/threonine-protein kinase ULK2 (Homo sapiens) (UniProt Q8IYT8); assay: Inhibition of ULK2 (unknown origin) assessed as residual activity at 100 nM by KINOMEscan analysis relative to control
T3 sequence (whole entry): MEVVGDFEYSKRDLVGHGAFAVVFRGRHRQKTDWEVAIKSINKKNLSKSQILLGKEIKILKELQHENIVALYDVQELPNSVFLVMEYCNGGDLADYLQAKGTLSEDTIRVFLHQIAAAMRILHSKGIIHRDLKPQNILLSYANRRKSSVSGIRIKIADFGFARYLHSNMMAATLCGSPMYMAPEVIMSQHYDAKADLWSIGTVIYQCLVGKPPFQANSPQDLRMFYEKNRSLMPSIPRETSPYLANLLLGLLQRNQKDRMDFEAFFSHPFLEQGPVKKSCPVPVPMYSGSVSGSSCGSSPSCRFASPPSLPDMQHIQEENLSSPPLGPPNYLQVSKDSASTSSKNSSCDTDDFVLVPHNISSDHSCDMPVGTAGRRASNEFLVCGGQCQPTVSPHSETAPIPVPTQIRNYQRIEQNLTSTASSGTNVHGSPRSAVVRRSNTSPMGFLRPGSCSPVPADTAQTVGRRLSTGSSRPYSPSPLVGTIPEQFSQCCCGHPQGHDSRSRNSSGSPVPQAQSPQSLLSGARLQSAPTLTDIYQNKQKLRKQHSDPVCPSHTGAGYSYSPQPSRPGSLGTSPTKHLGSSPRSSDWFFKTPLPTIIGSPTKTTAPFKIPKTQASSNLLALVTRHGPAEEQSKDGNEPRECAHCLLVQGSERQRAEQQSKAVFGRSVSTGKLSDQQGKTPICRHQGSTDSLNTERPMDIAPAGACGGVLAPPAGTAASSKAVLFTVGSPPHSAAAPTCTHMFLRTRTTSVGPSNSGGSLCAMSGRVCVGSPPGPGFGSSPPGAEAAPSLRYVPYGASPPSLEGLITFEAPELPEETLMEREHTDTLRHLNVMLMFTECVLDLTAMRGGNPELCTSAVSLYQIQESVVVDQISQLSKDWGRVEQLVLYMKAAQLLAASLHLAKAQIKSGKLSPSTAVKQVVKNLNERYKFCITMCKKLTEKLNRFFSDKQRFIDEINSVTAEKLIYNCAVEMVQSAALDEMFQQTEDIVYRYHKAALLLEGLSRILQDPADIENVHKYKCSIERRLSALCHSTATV

[10] = target: Wee1-like protein kinase (Homo sapiens) (UniProt P30291); assay: Inhibition of WEE1 (unknown origin) assessed as residual activity at 100 nM by KINOMEscan analysis relative to control
Sequence of Wee1-like protein kinase (Homo sapiens) (P30291 whole entry, looked up): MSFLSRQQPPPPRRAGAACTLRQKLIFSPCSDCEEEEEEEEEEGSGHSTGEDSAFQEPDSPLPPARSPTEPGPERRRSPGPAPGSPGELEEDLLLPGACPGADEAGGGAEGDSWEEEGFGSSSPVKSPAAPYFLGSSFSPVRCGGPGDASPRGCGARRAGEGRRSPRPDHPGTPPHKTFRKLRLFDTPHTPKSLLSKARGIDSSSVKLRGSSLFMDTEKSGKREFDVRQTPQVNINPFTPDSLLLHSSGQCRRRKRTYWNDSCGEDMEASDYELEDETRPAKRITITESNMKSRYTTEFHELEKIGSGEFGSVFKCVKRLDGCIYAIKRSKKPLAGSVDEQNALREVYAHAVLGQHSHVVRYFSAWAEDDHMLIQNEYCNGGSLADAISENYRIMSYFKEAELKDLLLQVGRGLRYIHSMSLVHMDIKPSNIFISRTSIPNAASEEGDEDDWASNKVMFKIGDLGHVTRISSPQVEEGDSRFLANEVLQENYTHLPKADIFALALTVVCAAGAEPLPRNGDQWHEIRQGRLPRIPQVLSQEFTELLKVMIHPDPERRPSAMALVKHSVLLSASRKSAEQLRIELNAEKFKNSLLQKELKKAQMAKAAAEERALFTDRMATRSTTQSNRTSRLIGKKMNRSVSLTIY

Sequence of Receptor tyrosine-protein kinase erbB-3 (Homo sapiens) (P21860 whole entry): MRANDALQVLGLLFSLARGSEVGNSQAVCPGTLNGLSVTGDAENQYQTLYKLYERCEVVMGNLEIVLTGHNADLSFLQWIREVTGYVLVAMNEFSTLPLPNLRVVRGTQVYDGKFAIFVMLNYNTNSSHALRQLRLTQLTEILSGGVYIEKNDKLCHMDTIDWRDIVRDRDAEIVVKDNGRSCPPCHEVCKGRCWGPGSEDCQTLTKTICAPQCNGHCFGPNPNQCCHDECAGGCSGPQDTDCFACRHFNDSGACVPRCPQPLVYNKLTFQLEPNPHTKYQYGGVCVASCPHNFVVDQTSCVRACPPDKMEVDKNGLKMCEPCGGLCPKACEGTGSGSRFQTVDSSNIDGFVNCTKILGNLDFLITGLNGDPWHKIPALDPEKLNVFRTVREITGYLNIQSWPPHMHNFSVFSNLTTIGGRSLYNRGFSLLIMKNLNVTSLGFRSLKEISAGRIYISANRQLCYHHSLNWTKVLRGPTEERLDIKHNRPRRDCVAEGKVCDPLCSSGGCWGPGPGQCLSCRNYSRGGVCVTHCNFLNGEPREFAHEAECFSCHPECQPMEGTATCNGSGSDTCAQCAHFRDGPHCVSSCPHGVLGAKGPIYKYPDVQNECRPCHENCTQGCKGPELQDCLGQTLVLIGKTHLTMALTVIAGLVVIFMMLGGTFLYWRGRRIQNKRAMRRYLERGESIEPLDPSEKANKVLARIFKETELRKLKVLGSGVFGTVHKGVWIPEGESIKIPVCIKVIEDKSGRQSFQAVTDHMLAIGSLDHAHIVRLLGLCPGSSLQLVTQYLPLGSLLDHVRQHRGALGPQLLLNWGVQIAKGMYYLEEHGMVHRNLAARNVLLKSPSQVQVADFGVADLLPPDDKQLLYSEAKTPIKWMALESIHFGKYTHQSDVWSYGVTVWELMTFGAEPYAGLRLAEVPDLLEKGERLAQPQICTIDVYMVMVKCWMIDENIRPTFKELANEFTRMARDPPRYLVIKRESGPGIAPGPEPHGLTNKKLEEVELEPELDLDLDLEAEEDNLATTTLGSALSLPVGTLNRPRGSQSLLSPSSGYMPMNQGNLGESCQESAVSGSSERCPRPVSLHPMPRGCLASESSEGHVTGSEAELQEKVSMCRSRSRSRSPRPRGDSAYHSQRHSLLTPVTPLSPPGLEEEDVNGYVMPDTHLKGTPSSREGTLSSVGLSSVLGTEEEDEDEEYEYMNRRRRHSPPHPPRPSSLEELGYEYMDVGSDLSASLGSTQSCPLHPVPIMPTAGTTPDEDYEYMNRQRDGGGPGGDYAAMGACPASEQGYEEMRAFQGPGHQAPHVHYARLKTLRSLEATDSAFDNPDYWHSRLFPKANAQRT

**Q.** Which results are given for `COc1cc2ncnc(N[C@H](C)c3cccc4ccccc34)c2cc1OC`?
**A.** Activity [1]: 100%; Activity [2]: 89%; Activity [3]: 100%; Activity [4]: 88%; Activity [5]: 79%; Activity [6]: 65%; Activity [7]: 94%; Activity [8]: 94%; Activity [9]: 100%; Activity [10]: 88%
